In assay [1] the target is T1, human recombinant 11β-HSD1 (Homo sapiens, UniProt P28845).
T1 construct: made in house; host or cells: Pichia pastoris (microsomal fraction)
The assay can be described thus: in vitro inhibition of human recombinant 11β-HSD1 (Pichia pastoris microsomes, [3H]cortisone to [3H]cortisol). It is filed as biochemical. The note with it: recombinant human 11β-HSD1 microsomes, 500 nM cortisone mixture, NADPH, 90 min at 37° C. Here is the method: The in vitro inhibition of human recombinant 11β-HSD1 is determined as follows:
Recombinant human 11β-HSD1 is expressed in yeast Pichia pastoris. Cultures are grown at 30° C. for 3 days in the presence of methanol to induce enzyme expression. The microsomal fraction overexpressing 11β-HSD1 is prepared from the cell homogenate and used as the enzyme source for primary screening. A test compound at the desired concentration is preincubated for 10 min at RT with 3 μg of the microsomal protein in 50 mM sodium phosphate, pH 7.5, in a total volume of 80 μL. The enzyme reaction is initiated by adding 20 μL of a mixture containing 5 mM NADPH, 500 nM cortisone, and 80,000 dpm of [^3H]cortisone in the same buffer and is terminated by ethyl acetate after incubation for 90 min at 37° C. The production of [^3H]cortisol is quantitated upon separation from [^3H]cortisone by a C18 column on HPLC equipped with a radioactivity detector. Glycerrhetinic acid, a known inhibitor of 11β-HSD1, is used as a standard.

In another assay the target is T2, human 11β-HSD2 (Homo sapiens, UniProt P80365).
T2 construct: using lysates of SW-620 cells as the enzyme source; host or cells: SW-620 human colon carcinoma cells (lysate)
T2 sequence (P80365 1-405): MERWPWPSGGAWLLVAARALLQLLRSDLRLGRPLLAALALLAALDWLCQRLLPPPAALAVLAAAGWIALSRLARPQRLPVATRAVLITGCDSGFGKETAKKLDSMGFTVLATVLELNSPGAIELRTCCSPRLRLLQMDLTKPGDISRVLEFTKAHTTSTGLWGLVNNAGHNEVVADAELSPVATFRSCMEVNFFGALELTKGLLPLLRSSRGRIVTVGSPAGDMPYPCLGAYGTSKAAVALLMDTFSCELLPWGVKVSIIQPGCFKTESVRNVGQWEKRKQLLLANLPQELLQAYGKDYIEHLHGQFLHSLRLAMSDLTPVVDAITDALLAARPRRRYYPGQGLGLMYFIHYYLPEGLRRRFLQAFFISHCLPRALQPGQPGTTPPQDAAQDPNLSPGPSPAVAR
Nature of the assay: in vitro inhibition of human 11β-HSD2 (SW-620 cell lysates, [3H]cortisol to [3H]cortisone). It is filed as biochemical. The protocol:
The in vitro inhibition of human 11β-HSD2 is determined as follows:
The SW-620 human colon carcinoma cell line is obtained from the American Type Culture Collection (ATCC). Cells are plated at a density of 8-10×10^4 cells/cm^2 in DMEM/F12 containing 5% BCS, 100 U/mL penicillin, 100 μg/mL streptomycin and […] amphotericin B. Cultures are grown to 80-90% confluence in a humidified, atmosphere of 5% CO2 at 37° C. The medium is changed to serum-free, phenol red-free DMEM/F12 at 24 h before harvesting the cells.
After 24 h in serum-free medium, cultured SW-620 cells are rinsed and scraped in Kreb's-Ringer buffer, pH 7.4, containing 1 mM EDTA, 2 μg/mL aprotinin, 10 μM leupeptin and 1 μM pepstatin. After sonication (30 seconds) and low speed centrifugation (2,000 rpm, 5 min) to remove cellular debris, the supernatant is collected and used to determine enzyme activity and protein concentration (BCA, Pierce, Rockford, Ill.).
Dehydrogenase activity is quantified by measuring the conversion of [^3H]cortisol to [^3H]cortisone using lysates of SW-620 cells as the enzyme source. The assay is performed in tubes containing Kreb's-Ringer buffer pH 7.4, with 0.20 mM NAD and 200,000 dpm of [^3H]cortisol and a test compound in a total volume of 1 mL. The tubes are preincubated for 10 min at 37° C. before adding 200 μg of cell lysates to start the reaction. After incubation for 1 h at 37° C. in a shaking water bath, the mixture is extracted with 2 volumes of ethyl acetate and centrifuged for 10 min at 2,000 rpm. The organic layer is collected, dried under vacuum and resuspended in methanol. The dissolved residues are quantitatively transferred to thin layer plates and developed in chloroform-methanol (90:10). Unlabeled cortisol and cortisone were used as reference markers. The TLC plates are scanned on a Bioscan radioimaging detector (Bioscan, Washington, D.C.), and the fractional conversion of cortisol to cortisone is calculated. Enzyme activity is expressed as pmoles of product formed per mg protein per hour. Carbenoxolone and glycyrrhetinic acid are used as standards.

Another assay deals with T3, cellular 11β-HSD1 (Rattus norvegicus, UniProt P16232).
T3 construct: Enzyme activity is measured in the medium of primary cultures of rat hepatocytes 48 h after plating the cells; endogenous in cells; host or cells: primary hepatocytes of male Sprague-Dawley rats
T3 sequence (P16232 whole entry): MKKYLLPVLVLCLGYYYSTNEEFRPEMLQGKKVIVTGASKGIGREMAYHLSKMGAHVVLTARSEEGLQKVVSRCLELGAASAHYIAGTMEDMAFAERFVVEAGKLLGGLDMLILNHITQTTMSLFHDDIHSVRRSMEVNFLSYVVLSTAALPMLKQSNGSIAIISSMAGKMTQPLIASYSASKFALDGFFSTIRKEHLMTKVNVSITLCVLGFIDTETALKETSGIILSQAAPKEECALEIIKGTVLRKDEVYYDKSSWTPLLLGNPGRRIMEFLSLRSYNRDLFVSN
Nature of the assay: inhibition of cellular 11β-HSD1 activity in primary rat hepatocytes. It is filed as cell-based. The note with it: 2 h incubation. Here is the method:
The inhibition of cellular 11β-HSD1 activity in primary rat hepatocytes is determined as follows:
Male Sprague-Dawley rats weighing 180-200 g are anesthetized with sodium pentobarbital (65 mg/kg). The liver is perfused in situ with calcium-free Earl's Balanced Salt Solution (EBSS) followed by EBSS containing 100-150 U/mL of collagenase, 1.8 mM CaCl2 and 10 mM HEPES, pH 7.4. The perfused liver is removed and aseptically placed in warm William's Medium E containing 10% BCS. After decapsulation, the organ is transferred to fresh medium and gently shaken to facilitate tissue dissociation and cell release. Hepatocytes are separated from nonparenchymal and dead cells by repeated low speed centrifugation. Cell viability is determined by trypan blue exclusion.
Hepatocytes are plated on collagen coated dishes at a density of 1×10^5 cells/cm^2 in William's medium E containing 10% BCS, 100 U/mL penicillin, 100 μg/mL streptomycin, 0.25 μg/mL amphotericin B, 2 mM L-glutamine, 10 mM HEPES, 100 nM insulin and 1 nM dexamethasone. After 1 h the medium is changed to serum-free William's medium E supplemented as described above. Thereafter, the medium is replaced every 24 h. The cultures are maintained in a humidified atmosphere of 5% CO2 at 37° C.
Enzyme activity is measured in the medium of primary cultures of rat hepatocytes 48 h after plating the cells. The medium is aspirated and replaced with serum-free William's medium E containing 2 nM [^3H]11-dehydrocorticosterone and a test compound and is incubated for 2 h. An aliquot of culture medium is removed at the end of the incubation and the mixture is extracted with 2 volumes of ethyl acetate, dried under vacuum and resuspended in methanol. The dissolved residues are quantitatively transferred to thin layer plates and developed in chloroform-methanol (90:10). The TLC plates are scanned on a Bioscan imaging detector and the fractional conversion of 11-dehydrocorticosterone to corticosterone is calculated. The cell layer is rinsed with cold phosphate-buffered saline and dissolved in 0.1 N NaOH/5% SDS for the determination of cellular protein (BCA, Pierce, Rockford, Ill.). Enzyme activity is expressed as pmoles of product formed per mg protein per hour.

Assay [2] has as its system corticosterone production in adrenalectomized (ADX) mice. The assay can be described thus: inhibition of corticosterone production in adrenalectomized (ADX) mice. It is filed as in vivo. The note with it: Mus musculus, po; ADX CD1 mice, orally 25 mg/kg each at 2 and 4 h before sacrifice; liver corticosterone. The protocol: Inhibition of corticosterone production in adrenalectomized (ADX) mice is determined as follows:
Bilateral adrenalectomy is performed in male mice of the CD1 strain (6 to 8 weeks of age, 25-30 g body weight) through a lumbar laparotomy. After 10 days the animals are fasted for 24 h. Compounds are administered orally at 25 mg/kg each at 2 and 4 h before sacrifice. A second group of animals receives carbenoxolone at the same dose, and a third group receives the vehicle (cornstarch). Homogenized liver samples are used to measure corticosterone concentration which is determined by radioimmunoassay and is expressed as pg of corticosterone per mg of liver protein.

Among the data in patent US20060205772A1, “Amide derivatives and their use as inhibitors of 11-beta-hydroxysteroid dehydrogenase type I” (priority 2003, published 2006) are IC50, inhibition and change in vivo values, retold here.

Structures are written as SMILES.

Usually IC50 stands for the concentration that gives 50% inhibition. Usually inhibition stands for the drop in the measured response relative to a control, in per cent. Higher therefore signals a strong effect.

T1 sequence (P28845 whole entry): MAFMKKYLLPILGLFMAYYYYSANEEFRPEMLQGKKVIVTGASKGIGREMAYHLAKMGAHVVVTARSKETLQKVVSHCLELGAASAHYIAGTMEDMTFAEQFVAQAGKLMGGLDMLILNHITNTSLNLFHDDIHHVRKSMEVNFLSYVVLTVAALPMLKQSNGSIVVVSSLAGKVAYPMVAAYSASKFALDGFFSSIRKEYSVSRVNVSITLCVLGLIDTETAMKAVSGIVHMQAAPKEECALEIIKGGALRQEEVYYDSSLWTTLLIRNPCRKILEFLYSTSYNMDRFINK

For `Cn1c(C(=O)N2CCC[C@@H]3CCCC[C@H]32)cc2ccccc21` (relative stereo) [Example 38, (1-Methyl-1H-indol-2-yl)-(4aS*,8aR*)-octahydro-1(2H)-quinolin-1-yl-methanone], the IC50 in assay [1] was determined as 180 nM. The same molecule came in with an inhibition at 10 µM on human 11β-HSD2 of 10%. Besides, the inhibition at 1 µM at cellular 11β-HSD1 is 49%. The change in vivo at 25 mg/kg in assay [2] was -62%.

As to `CN(CC1CCCCC1)C(=O)c1ccc(NC(=O)c2ccc(F)cc2)cc1Cl` [Example 3-11], in assay [1], the IC50 was determined as 1000 nM. The molecule further registered an inhibition at 10 µM against human 11β-HSD2 of 26%. This molecule also gave an inhibition at 1 µM at cellular 11β-HSD1 of 80%. Also, the change in vivo at 25 mg/kg in assay [2] was -69%.

Turning to `CC1=C(C(=O)N(C)CC23CC4CC(CC(C4)C2)C3)Cc2ccccc21` [Example 8-6], the IC50 in assay [1] worked out at 6.5 nM. Besides, on human 11β-HSD2, the inhibition at 10 µM worked out at 11%. For the same molecule, at 1 µM the inhibition against cellular 11β-HSD1 was 54%. Also, the change in vivo at 25 mg/kg in assay [2] is -57%.

Regarding `O=C(Nc1ccc(C(=O)N2CCC[C@@H]3CCCC[C@@H]32)cc1)c1ccc(F)cc1` [Example 11-13], the IC50 in assay [1] was determined as 563 nM. On human 11β-HSD2, this molecule had an inhibition at 10 µM of 2%. Also, at 1 µM the inhibition against cellular 11β-HSD1 was 90%. In addition, the change in vivo at 25 mg/kg in assay [2] is -73%.

As to `COc1cccc(NC(=O)Nc2ccc(C(=O)N3CCC[C@H]4CCCC[C@H]43)c(OC)c2)c1` [Example 13-4], the IC50 in assay [1] is 42 nM. In addition, 10 µM produced 44% inhibition on human 11β-HSD2. The inhibition at 1 µM at cellular 11β-HSD1 stood at 53%. In assay [2], the change in vivo at 25 mg/kg was -70%.

Take `COc1ccccc1CNC(=O)c1ccc(C(=O)N2CCC[C@@H]3CCCC[C@@H]32)cc1` [Example 23-47]: the IC50 in assay [1] stood at 2120 nM. Besides, the inhibition at 10 µM at human 11β-HSD2 came to 49%. Also, on cellular 11β-HSD1, the inhibition at 1 µM is 71%. Further, the change in vivo at 25 mg/kg in assay [2] is -61%.

In the case of `O=C(NCc1ccc(F)cc1)N1CCc2cc(C(=O)N3CCC[C@H]4CCCC[C@H]43)ccc21` [Example 33-21], the IC50 in assay [1] came to 262 nM. Further, on human 11β-HSD2, at 10 µM the inhibition was 45%. Further, the inhibition at 1 µM at cellular 11β-HSD1 was 84%. Moreover, in assay [2], the change in vivo at 25 mg/kg was -71%.

Turning to `O=C(c1ccc(-c2ccccc2[N+](=O)[O-])o1)N1CCC[C@@H]2CCCC[C@@H]21` [Example 35-15], the IC50 in assay [1] came to 7.7 nM. At human 11β-HSD2, this molecule displayed an inhibition at 10 µM of 34%. Further, at 1 µM the inhibition at cellular 11β-HSD1 was 76%. For the same molecule, the change in vivo at 25 mg/kg in assay [2] was -67%.

Turning to `COC(=O)Nc1ccc(C(=O)N2CC[C@H]3CCCC[C@H]3C2)c(OC)c1` [Example 48-37], the IC50 in assay [1] was 770 nM. For the same molecule, the inhibition at 10 µM at human 11β-HSD2 is 29%. In addition, the inhibition at 1 µM against cellular 11β-HSD1 was 75%. Besides, in assay [2], the change in vivo at 25 mg/kg is -69%.
